Experimental data taken from patent US9101559B2, “Leukemic cell CNS infiltration controlled by notch-induced chemotaxis” (New York University, priority 2009, dated 2015).

Assays:
Dtx1 = assay: Transcription of Notch target gene Dtx1 in CEM cells after GSI treatment; format: cell-based, human; settings: CEM cells (T-ALL cell line), 1 nM, three days
Protocol: (§1) FIGS. 9A-9D show γ-secretase-inhibitor mediated suppression of CCR7 expression. CEM cells (T-ALL cell line) were treated with either Compound E (Comp E) (1 nM) or DBZ (1 nM) for three days. FIG. 9A is a panel of western blots showing the disappearance of the activated N1-IC protein in CEM cells following γ-secretase inhibitor (GSI) treatment. β-actin immunoreactivity is shown as a loading control. […] Error bars define standard deviation from mean.
(§2) RNA was isolated using RNeasy Plus Mini Kit (Qiagen, Valencia, Calif.) columns and used to synthesize cDNA with the SuperScript First-Strand Kit (Invitrogen, Carlsbad, Calif.). Real time PCR was performed using iQ SYBR Green Supermix and an iCycler (Bio-Rad, Hercules, Calif.). Relative expression was determined from cycle threshold (CT) values and was normalized using β-actin as an internal control.

human CCR7 = assay: CCR7 expression in T-ALL cell lines after GSI treatment; format: cell-based; settings: for transcription of human CCR7: CEM cells (T-ALL cell line), 1 nM, three days; for CCR7 mRNA and protein expression: T-ALL cell lines, addition of γ-secretase inhibitors
Protocol: as §1, §2
To further correlate Notch 1 activation and CCR7 expression, T-ALL cell lines harboring Notch 1 activating mutations and primary T-ALL samples were analyzed. Strikingly, surface CCR7 was expressed in 80% (4/5) of T-ALL lines (FIG. 8A) and in 73% (8/11) of peripheral blood from primary T-ALL samples (FIG. 8B; #114, #358, and #479). […] To obtain a preliminary estimate of the importance of CCR7 expression in CNS infiltration, two human T-ALL lines were selected (FIG. 8A), one expressing CCR7 (CEM/CCR7^pos) and one deficient in CCR7 expression (DND41/CCR7^neg). Both cell lines were infected using a luciferase-expressing lentivirus. To study disease induction and progression, the cells were transplanted into lymphoid Rag2−/− γc−/− host animals. Transplantation of an identical number of leukemia cells led to distinct survival patterns as host animals which received CEM/CCR7^pos cells succumbed to the leukemic disease earlier that the ones receiving the DND41/CCR7^neg cells (FIG. 3A). Using live animal bioluminescent imaging, a higher tumor load in mice that received the […] cell line was observed (FIG. 3B). Most importantly, the brain and spinal cord of CEM/CCR7^pos-transplanted hosts (but not the DND41/CCR7^neg) were infiltrated by T-ALL cells (FIG. 3C). Further histopathological analysis confirmed the localization of the infiltrating cells in leptomeningeal spaces (FIG. 3D).

Hes1 = assay: Transcription of Notch target gene Hes1 in CEM cells after GSI treatment; format: cell-based, human; settings: CEM cells (T-ALL cell line), 1 nM, three days
Protocol: as §1, §2

activated N1-IC protein = assay: Western blot of activated N1-IC protein in CEM cells after γ-secretase inhibitor treatment; format: cell-based, human; settings: CEM cells (T-ALL cell line), 1 nM, three days
Protocol: as §1

SMILES	transcription of Dtx1 (Dtx1)	transcription of human CCR7 (human CCR7)	CCR7 mRNA and protein expression (human CCR7)	transcription of Hes1 (Hes1)	activated N1-IC protein (western blot) (activated N1-IC protein)
C[C@H](NC(=O)Cc1cc(F)cc(F)c1)C(=O)N[C@H]1N=C(c2ccccc2)c2ccccc2N(C)C1=O [Compound E]	efficiently suppressed	suppressed	significant down-regulation	efficiently suppressed	disappearance
C[C@H](NC(=O)Cc1cc(F)cc(F)c1)C(=O)N[C@@H]1C(=O)N(C)c2ccccc2-c2ccccc21 [DBZ]	efficiently suppressed	suppressed	significant down-regulation	efficiently suppressed	disappearance
